Where two headings read alike, the source gives them in different places.
Columns and labels:
[1] = system: KB oral carcinoma cell line; assay: Cell growth inhibition, KB cells; type: cell-based; details: Homo sapiens, KB
Procedure: (§1) The KB oral carcinoma cell line was provided by M. Fisher (Pharmacology, UNC- Chapel Hill). The isolation and properties of the etoposide-resistant sub-clone, KB-7d, and the camptothecin-resistant line, KB-CPT100, were reported in P. Ferguson et al., Cancer Res. 48:5956 (1988) and D. Beidler et al., Cancer Res. 56:345 (1996), and are discussed briefly hereinafter. The vincristine-resistant sub-clone, KB-VIN20c was isolated by selection in 20 nM vincristine and over-expresses the P-glycoprotein multidrug-resistant drug-efflux protein (unpublished results).
(§2) All cell types were propagated in RPMI-1640 medium supplemented with 5% (v/v) fetal calf serum and 100 μg/mL kanamycin at 37° in a humidified atmosphere of 5% CO2 and 95% air. Over the course of the experiments, doubling times of cells were 24±4 hours.
(§3) Fifty thousand cells were plated in 25 cm^2 flasks (Falcon, N.J., USA) and incubated overnight. The medium was supplemented with test compounds at various concentrations and cultures were incubated for 48-51 hours (for about two cell doublings) before cells were trypsinized and then counted using a hemacytometer. The number of treated cells which excluded 0.5% (v/v) trypan blue were expressed as a percentage of the growth measured in control cultures. Compounds were evaluated in at least two independent experiments and the combined results were analyzed as scatter plots with dose-responses being computer fitted by linear regression at the 95% confidence level using Graphpad Software., San Diego, Calif. The IC50 concentrations which inhibited cell growth by fifty percent relative to control were interpolated from graphed results.

KB-7d [2] = assay: Cell growth inhibition, etoposide-resistant KB-7d cells; type: cell-based
Procedure: as §1, §2, §3

KB-CPT100 [3] = assay: Cell growth inhibition, camptothecin-resistant KB-CPT100 cells; type: cell-based
Procedure: as §1, §2, §3

KB-VIN20c [4] = assay: Cell growth inhibition, vincristine-resistant KB-VIN20c cells; type: cell-based
Procedure: as §1, §2, §3

KB = assay: Cytotoxicity measured as reduced plating efficiency, KB cells; type: cell-based; details: Homo sapiens, 3 h, read-out: Cytotoxicity Measured as Reduced Plating Efficiency IC50
Procedure: (§4) LC50 concentrations were determined by treating cells for three hours with different concentrations of compounds then replating cells to measure colony formation and plating efficiency as the percent of total cells forming colonies. Compounds were evaluated in three independent experiments. The plating efficiences of untreated cells varied between experiments with values ranging from 14-31% for KB, 31-56% for KB-7d, 16-38% for KB-VIN20c and 21-36% for KB-CPT100. A concentration of compound that reduced plating efficiency by fifty percent relative to control, the LC50, was determined graphically as stated in the preceding section.

KB-7d [5] = assay: Cytotoxicity measured as reduced plating efficiency, KB-7d cells; type: cell-based; details: KB7D, 3 h, read-out: Cytotoxicity Measured as Reduced Plating Efficiency IC50
Procedure: as §4

KB-VIN20c [6] = assay: Cytotoxicity measured as reduced plating efficiency, KB-VIN20c cells; type: cell-based; details: 3 h, read-out: Cytotoxicity Measured as Reduced Plating Efficiency IC50
Procedure: as §4

[7] = biological target: T1, calf thymus DNA topoisomerase I (Bos taurus, UniProt F1MN93); assay: In vitro topoisomerase-DNA cleavage assay, topoisomerase I; type: biochemical
T1 construct: Calf thymus DNA topoisomerases were purchased from TopoGen Inc., Columbus, Ohio; purchased TopoGen Inc., Columbus, Ohio; host or cells: calf thymus (tissue-derived enzyme)
T1 sequence (F1MN93 1-767): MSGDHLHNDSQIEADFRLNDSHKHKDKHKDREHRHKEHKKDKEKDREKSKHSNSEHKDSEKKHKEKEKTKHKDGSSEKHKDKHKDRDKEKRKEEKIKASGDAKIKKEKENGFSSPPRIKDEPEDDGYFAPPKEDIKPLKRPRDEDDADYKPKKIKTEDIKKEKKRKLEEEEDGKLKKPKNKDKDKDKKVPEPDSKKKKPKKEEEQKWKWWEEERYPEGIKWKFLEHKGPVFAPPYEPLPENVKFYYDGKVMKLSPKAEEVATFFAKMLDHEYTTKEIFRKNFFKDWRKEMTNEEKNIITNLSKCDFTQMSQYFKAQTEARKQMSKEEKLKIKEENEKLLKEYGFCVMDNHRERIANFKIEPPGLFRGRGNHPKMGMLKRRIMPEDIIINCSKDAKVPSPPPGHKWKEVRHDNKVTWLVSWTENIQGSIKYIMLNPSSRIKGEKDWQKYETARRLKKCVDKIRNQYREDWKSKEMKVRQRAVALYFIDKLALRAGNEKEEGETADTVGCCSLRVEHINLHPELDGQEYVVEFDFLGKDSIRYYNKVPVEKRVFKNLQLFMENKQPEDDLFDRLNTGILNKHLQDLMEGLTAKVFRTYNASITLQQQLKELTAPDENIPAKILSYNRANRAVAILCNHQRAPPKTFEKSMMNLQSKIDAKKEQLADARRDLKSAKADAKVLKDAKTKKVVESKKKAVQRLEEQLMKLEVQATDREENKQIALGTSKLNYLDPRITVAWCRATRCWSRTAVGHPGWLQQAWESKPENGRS
Excerpt: (§5) Calf thymus DNA topoisomerases were purchased from TopoGen Inc., Columbus, Ohio. Tritium-labeled thymidine (60-90 ci/mmol) for labeling cellular DNA to measure protein-DNA complexes and αP^32-labeled deoxycytidine triphosphate (>3000 ci/mmol) were obtained from ICN Biochemicals Inc., Irvine, Calif. The latter radiochemical was used with a T4-DNA polymerase polymerase-labeling system from BRL Inc., Gaithersburg, Md., to prepare P^32-plasmid DNA for in vitro cleavage assays. Tissue culture reagents were purchased from Sigma Chemical Co., St. Louis, Mo., and Gibco-BRL Inc. All other chemicals were reagent grade.
(§6) The detailed method used to measure stimulation of cleavable complexes in vitro is described in K. Bastow et al., Planta Med. 59:195 (1993).. Briefly, incubated cleavage reactions containing one nanogram of P^32 end-labeled linearized PBR322 DNA, one unit of enzyme and test compound were divided equally for analysis. One portion was prepared for gel electrophoresis with subsequent autoradiography and protein-DNA complexes in the remaining sample were analyzed using the potassium-SDS precipitation method and scintillation spectrometry.

KB cells [8] = assay: Gel lysis assay for genomic DNA breaks; type: cell-based; details: for genomic DNA fragmentation: three hours; for reversal of genomic DNA fragmentation upon drug removal: additional hour in fresh media
Procedure: One million KB cells in 25cm^2 flasks were treated for three hours with test compound, the medium was discarded then cells were scraped into ice-cold PBS and harvested by centrifugation. Washed cell pellets were resuspended in eighty microliters of a 37° C. gel solution [1% (w/v) low-melting point agarose in PBS], and were cast in a mold and refrigerated to form 6×7×2 mm agarose plugs. Plugs of cells were incubated in lysis-digestion buffer (0.4M EDTA, 0.01 Tris (HCl, pH 8.0), 1% (w/v) N-lauryl-sarcosine and 100 μg/mL proteinase K) at 37° overnight or 50° for one hour. The treated plugs were equilibrated in TBE buffer and placed against a gel comb in a horizontal gel casting tray (BRL Inc., H4 system format). A 55° gel solution containing 0.8% (w/v) agarose in TBE was poured and allowed to gel. Electrophoresis was at 3.5 v/cm (measured between electrodes) for 16 hours at 4° without buffer re-circulation. The gel was stained with 1 μg/mL ethidium bromide in water, treated overnight at 25° C. with RN'ase (1 μg/mL), and then photographed under UV illumination. For the reversibility studies, treated cells were washed with PBS and incubated with fresh media for an additional hour before harvesting for plug preparation and gel analysis.

[9] = system: calf thymus DNA topoisomerase II; assay: In vitro topoisomerase-DNA cleavage assay, topoisomerase II; type: biochemical
Excerpt: as §5, §6

KB cells [10] = assay: Cellular protein-DNA complex formation (potassium-SDS precipitation); type: cell-based; details: one micromolar and lower; one hour
Procedure: Stimulation of intracellular protein associated DNA breaks was measured using a standard assay method described in Y. Kashiwada et al., J. Pharm. Sci. 82:487 (1993). Briefly, KB cells were labeled overnight with tritiated thymidine (0.5 μCi/mL), chased for two hours and then treated in triplicate with test compounds at various concentrations. After one hour, samples were processed and protein-DNA complexes were measured as potassium-SDS precipitable radioactivity.

[11] = system: KB oral carcinoma cell line; details: KB growth inhibition; cited from earlier work
KB-7d [12] = details: relative to KB; cited from earlier work
KB-CPT100 [13] = details: relative to KB; cited from earlier work
[14] = fifty-times the IC50 for KB growth inhibition (etoposide eight, 4b four, 3 0.4, S-2 0.8 micromolar)
[15] = ten micromolar, S-1 vs 3, 4a, S-2 vs 3, 4b

For `CC[C@@]1(O)C(=O)OCc2c1cc1n(c2=O)Cc2c-1nc1ccccc1c2C=O` [Compound 3, 7-formyl camptothecin, reference compound], the IC50 ([1]; read-out: estimated IC50, KB cell growth) was 7 nM, the IC50 ([1]; 48-51 hours, two numbers in brackets after the value, read-out: Cell Growth Inhibition IC50) was 7 nM and the IC50 (KB-7d [2]; KB7D, KB-7d, 48-51 hours, two numbers in brackets after the value, read-out: Cell Growth Inhibition IC50) was 9 nM. For the same molecule, the “cross-resistance of KB-7d cells, growth inhibition” value (KB-7d [2]; relative to KB) was “equally active”, the IC50 (KB-CPT100 [3]; KBCPT100, KB-CPT100, 48-51 hours, two numbers in brackets after the value, read-out: Cell Growth Inhibition IC50) was 575 nM and the “cross-resistance of KB-CPT100 cells, growth inhibition” value (KB-CPT100 [3]; relative to KB) was “about 58 fold”. For the same molecule, the IC50 (KB-VIN20c [4]; XB-VIN20c (so in the source), 48-51 hours, two numbers in brackets after the value, read-out: Cell Growth Inhibition IC50) was 18 nM, the “cross-resistance of KB-VIN20c cells, growth inhibition” value (KB-VIN20c [4]; relative to KB) was “no more than 2 fold” and the IC50 (KB) was 10000 nM. For the same molecule, the IC50 (KB-7d [5]) was > 16000 nM, the IC50 (KB-VIN20c [6]) was 12000 nM and the “stimulation of topoisomerase I cleavage activity, dose behaviour” value ([7]; higher test concentrations) was “not inhibited at higher test concentrations”. The “genomic DNA fragmentation” value (KB cells [8]; [14]) was “inactive”, the “genomic DNA fragmentation” value (KB cells [8]; twenty-fold higher concentration (3 at sixteen micromolar)) was “marginal fragmentation” and the “reversal of genomic DNA fragmentation upon drug removal” value (KB cells [8]; twenty-fold higher concentration) was “not affected by reversing treatment”.

In the case of `COc1cc([C@@H]2c3cc4c(cc3[C@@H](O[C@@H]3O[C@@H]5CO[C@@H](C)O[C@H]5[C@H](O)[C@H]3O)[C@H]3COC(=O)[C@H]23)OCO4)cc(OC)c1O` [Compound C-1, etoposide, reference compound], the “stimulation of in vitro topoisomerase II cleavable-complexes, dose behaviour” value [9] is reported as “act saturably”, the “stimulation of topoisomerase II-induced DNA cleavage over enzyme control” value (shortened to “stimulation … over enzyme control”) ([9]; fifty micromolar) is reported as 12 fold and the “stimulation … over enzyme control” value ([9]; one micromolar) is reported as 1.5 fold. The “stimulation … over enzyme control” value ([9]; ten micromolar) was 3 fold, the “intracellular protein-DNA complex formation” value (KB cells [10]) was “no measurable response” and the “reversal of genomic DNA fragmentation upon drug removal” value (KB cells [8]; fifty-times the IC50) was “integrity of the DNA was restored”. For the same molecule, the “genomic DNA fragmentation” value (KB cells [8]; [14]) was “High molecular weight DNA fragments were detected”, the IC50 [11] was 160 ± 40 nM and the “resistance of KB-7d cells” value (KB-7d [12]) was 145 fold.

In the case of `CC[C@@]1(O)C(=O)OCc2c1cc1n(c2=O)Cc2cc3ccccc3nc2-1` [Compound C-2, camptothecin], the IC50 [11] is given as 9.8 ± 3.2 nM and the “resistance of KB-CPT100 cells to growth-inhibitory effect” value (KB-CPT100 [13]) is given as 32 fold.

In the case of `CC[C@@]1(O)C(=O)OCc2c1cc1n(c2=O)Cc2c-1nc1ccccc1c2/C=N\c1ccc(N[C@@H]2c3cc4c(cc3[C@@H](c3cc(OC)c(O)c(OC)c3)[C@H]3C(=O)OC[C@@H]32)OCO4)cc1` [Compound S-1], the “cleavable complex formation with topoisomerase II” value ([9]; ten micromolar, FIG. 1A) is reported as “induced cleavable complexes”, the “topoisomerase II cleavable complex activity relative to unconjugated components” value [9, 15] is reported as “reduced about two-fold” and the “cleavable complex formation with topoisomerase I” value ([7]; ten micromolar, FIG. 1A) is reported as “induced cleavable complexes”. For the same molecule, the “topoisomerase I cleavable complex activity relative to unconjugated components” value [7, 15] was “reduced about two-fold” and the melting point was > 300 °C (dec.).

— US6420377B1, “Covalent conjugates of topoisomerase I and topoisomerase II inhibitors” (priority 1997, dated 2002)
